From PubChem BioAssay (NCI)
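Each compound was tested at five concentrations against cells in 96-well plates for 48 hours. GI50 is the concentration that inhibits growth by half. At the TGI there is no net growth.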

Assays:
Assay in all cases: NCI tumour cell line growth inhibition, 48 h
SK-OV-3 ovarian = tested on: SK-OV-3 ovarian
PC-3 prostate = tested on: PC-3 prostate
HCT-116 colon = tested on: HCT-116 colon
SNB-19 CNS = tested on: SNB-19 CNS
SF-539 CNS = tested on: SF-539 CNS
SK-MEL-2 melanoma = tested on: SK-MEL-2 melanoma
M14 melanoma = tested on: M14 melanoma
UACC-257 melanoma = tested on: UACC-257 melanoma
U251 CNS = tested on: U251 CNS
NCI/ADR-RES ovarian = tested on: NCI/ADR-RES ovarian
A498 renal = tested on: A498 renal
UO-31 renal = tested on: UO-31 renal
HCT-15 colon = tested on: HCT-15 colon
NCI-H522 lung = tested on: NCI-H522 lung
SK-MEL-5 melanoma = tested on: SK-MEL-5 melanoma
OVCAR-8 ovarian = tested on: OVCAR-8 ovarian
RPMI-8226 leukemia = tested on: RPMI-8226 leukemia
CAKI-1 renal = tested on: CAKI-1 renal
HS 578T breast = tested on: HS 578T breast
BT-549 breast = tested on: BT-549 breast
LOX IMVI melanoma = tested on: LOX IMVI melanoma
MALME-3M melanoma = tested on: MALME-3M melanoma
IGROV1 ovarian = tested on: IGROV1 ovarian
RXF 393 renal = tested on: RXF 393 renal
SF-295 CNS = tested on: SF-295 CNS
SN12C renal = tested on: SN12C renal
K-562 leukemia = tested on: K-562 leukemia
A549 NSCLC = tested on: A549 NSCLC
HCC-2998 colon = tested on: HCC-2998 colon
SK-MEL-28 melanoma = tested on: SK-MEL-28 melanoma
SW-620 colon = tested on: SW-620 colon
SF-268 CNS = tested on: SF-268 CNS
ACHN renal = tested on: ACHN renal
MDA-MB-231 breast = tested on: MDA-MB-231 breast
EKVX NSCLC = tested on: EKVX NSCLC
NCI-H226 lung = tested on: NCI-H226 lung
OVCAR-4 ovarian = tested on: OVCAR-4 ovarian
SR leukemia = tested on: SR leukemia
MOLT-4 leukemia = tested on: MOLT-4 leukemia
786-0 renal = tested on: 786-0 renal
COLO 205 colon = tested on: COLO 205 colon
MDA-MB-435 = tested on: MDA-MB-435
HOP-92 NSCLC = tested on: HOP-92 NSCLC
NCI-H460 lung = tested on: NCI-H460 lung
T-47D breast = tested on: T-47D breast
CCRF-CEM leukemia = tested on: CCRF-CEM leukemia
OVCAR-3 ovarian = tested on: OVCAR-3 ovarian
OVCAR-5 ovarian = tested on: OVCAR-5 ovarian
DU-145 prostate = tested on: DU-145 prostate
MCF7 breast = tested on: MCF7 breast
HT29 colon = tested on: HT29 colon
KM12 colon = tested on: KM12 colon
TK-10 renal = tested on: TK-10 renal
HOP-62 NSCLC = tested on: HOP-62 NSCLC
HL-60(TB) leukemia = tested on: HL-60(TB) leukemia
SNB-75 CNS = tested on: SNB-75 CNS
UACC-62 melanoma = tested on: UACC-62 melanoma

In the case of `CCNC(=O)N1CCc2cc(OC)c(OCCc3ccc(OC)cc3)cc2C1c1ccc(OC)cc1C` (stereo unspecified), the GI50 (SK-OV-3 ovarian) is reported as 5440 nM, the TGI (SK-OV-3 ovarian) is reported as greater than 100000 nM and the GI50 (PC-3 prostate) is reported as 489 nM. For the same molecule, the TGI (PC-3 prostate) was greater than 100000 nM, the GI50 (HCT-116 colon) was 232 nM and the TGI (HCT-116 colon) was greater than 100000 nM. The GI50 (SNB-19 CNS) was 1160 nM, the TGI (SNB-19 CNS) was greater than 100000 nM and the GI50 (SF-539 CNS) was 572 nM. The TGI (SF-539 CNS) was 5720 nM, the GI50 (SK-MEL-2 melanoma) was 3800 nM and the TGI (SK-MEL-2 melanoma) was greater than 29700 nM. It also gave a GI50 (M14 melanoma) of 1240 nM, a TGI (M14 melanoma) greater than 100000 nM and a GI50 (UACC-257 melanoma) of 6660 nM. For the same molecule, the TGI (UACC-257 melanoma) was greater than 100000 nM, the GI50 (U251 CNS) was 557 nM and the TGI (U251 CNS) was greater than 100000 nM. The GI50 (NCI/ADR-RES ovarian) was 871 nM, the TGI (NCI/ADR-RES ovarian) was greater than 30000 nM and the TGI (A498 renal) was greater than 22200 nM. The GI50 (UO-31 renal) was 1450 nM, the TGI (UO-31 renal) was greater than 100000 nM and the GI50 (HCT-15 colon) was 168 nM. It also gave a TGI (HCT-15 colon) greater than 100000 nM, a GI50 (NCI-H522 lung) of 698 nM and a TGI (NCI-H522 lung) of 3340 nM. For the same molecule, the GI50 (SK-MEL-5 melanoma) was 741 nM, the TGI (SK-MEL-5 melanoma) was 3160 nM and the GI50 (OVCAR-8 ovarian) was 821 nM. The TGI (OVCAR-8 ovarian) was greater than 100000 nM, the GI50 (RPMI-8226 leukemia) was 486 nM and the TGI (RPMI-8226 leukemia) was 4890 nM. It also gave a GI50 (CAKI-1 renal) of 1150 nM, a TGI (CAKI-1 renal) greater than 100000 nM and a GI50 (HS 578T breast) of 1660 nM. It also gave a TGI (HS 578T breast) greater than 31100 nM, a GI50 (BT-549 breast) of 1360 nM and a GI50 (LOX IMVI melanoma) of 300 nM. For the same molecule, the GI50 (MALME-3M melanoma) was 12200 nM, the TGI (MALME-3M melanoma) was greater than 100000 nM and the GI50 (IGROV1 ovarian) was 755 nM. It also gave a TGI (IGROV1 ovarian) greater than 100000 nM, a GI50 (RXF 393 renal) of 1510 nM and a TGI (RXF 393 renal) of 4190 nM. It also gave a GI50 (SF-295 CNS) of 875 nM, a TGI (SF-295 CNS) greater than 37500 nM and a GI50 (SN12C renal) of 1530 nM. For the same molecule, the TGI (SN12C renal) was greater than 100000 nM, the GI50 (K-562 leukemia) was 242 nM and the TGI (K-562 leukemia) was greater than 100000 nM. It also gave a GI50 (A549 NSCLC) of 1390 nM, a TGI (A549 NSCLC) greater than 100000 nM and a GI50 (HCC-2998 colon) of 1950 nM. The TGI (HCC-2998 colon) was greater than 100000 nM, the GI50 (SK-MEL-28 melanoma) was 1410 nM and the TGI (SK-MEL-28 melanoma) was greater than 100000 nM. The GI50 (SW-620 colon) was 741 nM, the TGI (SW-620 colon) was greater than 100000 nM and the GI50 (SF-268 CNS) was 1320 nM. It also gave a TGI (SF-268 CNS) greater than 100000 nM, a GI50 (ACHN renal) of 755 nM and a TGI (ACHN renal) greater than 100000 nM. The GI50 (MDA-MB-231 breast) was 1040 nM, the TGI (MDA-MB-231 breast) was greater than 100000 nM and the GI50 (EKVX NSCLC) was 5640 nM. The TGI (EKVX NSCLC) was greater than 100000 nM, the GI50 (NCI-H226 lung) was 2720 nM and the TGI (NCI-H226 lung) was greater than 53800 nM. The GI50 (OVCAR-4 ovarian) was 3730 nM, the TGI (OVCAR-4 ovarian) was greater than 100000 nM and the GI50 (SR leukemia) was 151 nM. It also gave a TGI (SR leukemia) of 2690 nM, a GI50 (MOLT-4 leukemia) of 314 nM and a TGI (MOLT-4 leukemia) greater than 100000 nM. It also gave a GI50 (786-0 renal) of 715 nM, a TGI (786-0 renal) greater than 100000 nM and a GI50 (COLO 205 colon) of 1070 nM. The TGI (COLO 205 colon) was greater than 100000 nM, the GI50 (MDA-MB-435) was 770 nM and the TGI (MDA-MB-435) was 7230 nM. The GI50 (HOP-92 NSCLC) was 3910 nM, the TGI (HOP-92 NSCLC) was greater than 100000 nM and the GI50 (NCI-H460 lung) was 288 nM. It also gave a TGI (NCI-H460 lung) greater than 32900 nM, a GI50 (T-47D breast) of 2960 nM and a TGI (T-47D breast) greater than 100000 nM. It also gave a GI50 (CCRF-CEM leukemia) of 432 nM, a TGI (CCRF-CEM leukemia) greater than 100000 nM and a GI50 (OVCAR-3 ovarian) of 1960 nM. The TGI (OVCAR-3 ovarian) was greater than 100000 nM, the GI50 (OVCAR-5 ovarian) was 2350 nM and the TGI (OVCAR-5 ovarian) was greater than 100000 nM. It also gave a GI50 (DU-145 prostate) of 1330 nM, a TGI (DU-145 prostate) greater than 100000 nM and a GI50 (MCF7 breast) of 528 nM. The TGI (MCF7 breast) was greater than 100000 nM, the GI50 (HT29 colon) was 694 nM and the TGI (HT29 colon) was 9660 nM. The GI50 (KM12 colon) was 1120 nM, the TGI (KM12 colon) was greater than 100000 nM and the GI50 (TK-10 renal) was 5950 nM. The TGI (TK-10 renal) was greater than 100000 nM, the GI50 (HOP-62 NSCLC) was 1590 nM and the TGI (HOP-62 NSCLC) was greater than 100000 nM. The GI50 (HL-60(TB) leukemia) was 583 nM, the TGI (HL-60(TB) leukemia) was 5230 nM and the GI50 (SNB-75 CNS) was 893 nM. The TGI (SNB-75 CNS) was greater than 27200 nM, the GI50 (UACC-62 melanoma) was 644 nM and the TGI (UACC-62 melanoma) was greater than 100000 nM.
